Measurements: patent US20260191825A1, “CONTRACEPTIVE COMPOUNDS AND DOSING FOR THE SAME” (YourChoice Therapeutics, Inc., priority 2024, published 2026)
Entries after “also recorded” stand apart in the source; their conditions may differ.

How the values were obtained:
male Beagle dogs [1] = experiment: Dog 28-day repeat-dose GLP toxicity study; format: in vivo
rat micronucleus = experiment: In vivo rat micronucleus study; settings: highest doses tested
mammalian cell = experiment: Chromosomal aberration assay (in vitro mammalian cell assay); format: cell-based; settings: highest doses tested
[2] = test system: bacterial reverse mutation (Ames); experiment: In vitro bacterial reverse mutation (Ames) test; format: cell-based; settings: in vitro bacterial assay, highest doses tested
[3] = Rat GLP single dose study, PK at the NOAEL; settings: male, in vivo, 1000 mg/kg, single dose 1,000 mg/kg (NOAEL)
[4] = NHP non-GLP 14-day repeat-dose study, PK at the NOAEL; settings: male, cynomolgus monkey, in vivo, 10 mg/kg, 10 mg/kg (NOAEL); for AUC(0-t): read-out: AUC0-24
rats = experiment: Mating trials with rats; format: in vivo, rat; settings: control 88%
male dogs = experiment: Dog single dose non-GLP study; format: in vivo
[5] = In vitro stability in microsomes (mouse); format: in vitro ADME; settings: mice, read-out: Half-life (T1/2) in microsomes
Procedure: (§1) Respective half-lives (T1/2) were 9.5 hours (human), 23.1 hours (monkeys), >23.1 hours (mice), >23.1 hours (rats), 19.6 hours (rabbits), and >23.1 hours (dogs).

[6] = In vitro stability in microsomes (rat); format: in vitro ADME; settings: rats
Procedure: as §1

[7] = In vitro stability in microsomes (dog); format: in vitro ADME; settings: dogs
Procedure: as §1

[8] = Metabolite identification in pooled hepatocytes (all species); format: in vitro ADME, human, monkey, mouse, rat, rabbit, dog
Text: Overall, each metabolite was present at less than 10% of the recoverable metabolic profile across all species. The rat produced 6 of the 8 quantified human metabolites and the dog produced 4 of the 8 human metabolites. […] Because the presence of these metabolites was ≤10% of the recoverable metabolic profile, and because all other human metabolites were represented in either the rat or dog, these 2 species were considered relevant species to assess toxicity.

CYP2C19 = CYP2C19 (Homo sapiens, UniProt P33261); experiment: In vitro CYP inhibition (direct and time-dependent), CYP2C19; format: in vitro ADME
Text: (§2) However, the likelihood of drug interactions is low since healthy participants who meet eligibility criteria will be enrolled in this Phase 1b/2a clinical trial. An allowance for select concomitant medications may be considered for select participants at the discretion of the investigator and/or sponsor if drug profiles are not anticipated to interact with Compound A. Such medications may include, but will not be limited to paracetamol or ibuprofen as assessed by both the PI and the Sponsor. […] Additional precautions to avoid grapefruit, pomegranates, star fruit, or Seville oranges for 7 days prior to admission, and juices and products containing these fruits for the duration of the study will be taken.

CYP3A4/5 = experiment: In vitro CYP inhibition (direct and time-dependent), CYP3A4/5; format: in vitro ADME; settings: human
Text: as §2

[9] = Phase 1b MAD study (Part 1), 28-day dosing, PK; format: in vivo, human; settings: for Cmax / AUC0-24 / AUC(0-t) / AUC(0-inf) / half-life: mean; for Tmax: median;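 as to all read-outs here: PK profiles sampled across 24 h on Day 1 and Day 28 while participants stayed overnight in the clinical research unit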
Text: • Part 1: Participants will have overnight stays in the clinical research unit in order to monitor their wellbeing and obtain 24-hour PK profiles on Day 1 and Day 28.

[10] = Dog single dose cardiovascular study; settings: male, Beagle, dog, in vivo
male Beagle dogs [11] = experiment: Dog single dose cardiovascular study; settings: male Beagle dogs, single dose 2.5, 5 or 25 mg/kg
[12] = Dog GLP 28-day repeat-dose study, PK at the NOAEL; settings: male, Beagle, in vivo, 5 mg/kg, 5 mg/kg (NOAEL); for AUC(0-t): AUC0-24, dog
[13] = male, human, in vivo, oral, 30 mg, […] mg once daily, Day 28
[14] = male, human, in vivo, oral, 15 mg once daily, Day 28

Sequence of CYP2C19 (P33261 whole entry): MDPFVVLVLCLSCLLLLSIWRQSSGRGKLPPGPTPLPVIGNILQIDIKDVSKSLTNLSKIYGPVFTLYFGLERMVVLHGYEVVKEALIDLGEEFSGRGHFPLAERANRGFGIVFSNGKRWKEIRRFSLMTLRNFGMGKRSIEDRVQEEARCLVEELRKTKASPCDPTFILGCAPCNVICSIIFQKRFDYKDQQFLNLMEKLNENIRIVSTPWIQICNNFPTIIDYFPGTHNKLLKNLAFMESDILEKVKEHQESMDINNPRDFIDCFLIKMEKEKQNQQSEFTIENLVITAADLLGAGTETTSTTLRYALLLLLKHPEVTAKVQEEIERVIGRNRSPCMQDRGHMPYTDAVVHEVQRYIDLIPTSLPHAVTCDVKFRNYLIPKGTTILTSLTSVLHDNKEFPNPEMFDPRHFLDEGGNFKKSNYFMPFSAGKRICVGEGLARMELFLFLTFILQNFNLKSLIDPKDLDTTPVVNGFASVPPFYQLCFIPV

Q: For `Cc1ccc(C2=CC(C)(C)Oc3ccc(-c4ccc(-c5ccc(C(=O)O)cc5)[nH]4)cc32)cc1` [Compound A], which “HED (based on BSA) of MABEL” value (male Beagle dogs [1]; dog) is on record?
A: 1.4 mg/kg

Q: And the “HED for 60 kg BW of MABEL” value (male Beagle dogs [1]; dog)?
A: 84 mg

Q: What about the “HED for 80 kg BW of MABEL” value (male Beagle dogs [1]; dog) of the same compound?
A: 112 mg

Q: What about the “HED of not tolerated dose, fixed dose based on 80 kg body weight” value (male Beagle dogs [1]; dog) of the same compound?
A: ≥ 444.8 mg

Q: And the “Not tolerated repeat daily dose (death and morbidity)” value (male Beagle dogs [1]; dog)?
A: ≥ 10 mg/kg/day

Q: What about the “Doses with intended testicular toxicity confirmed by histopathology” value (male Beagle dogs [1]; dog, 28-day dosing) of the same compound?
A: ≥ 2.5 mg/kg/day

Q: What about the MABEL (male Beagle dogs [1]; dog, 28-day repeat dose GLP) of the same compound?
A: 2.5 mg/kg/day

Q: And the Reversibility of spermatogenesis (male Beagle dogs [1]; dog, 62-day recovery period)?
A: reversible

Q: What about the Recovery of spermatogenesis (male Beagle dogs [1]; dog, after 28-day dosing) of the same compound?
A: 1 spermatogenic cycle

Q: And the “Cross-section of canine testicle after dosing (FIG. 1B)” value (male Beagle dogs [1]; dog, after dosing)?
A: no developing and mature sperm

Q: What about the “Cross-section of canine testicle after recovery period of no dosing (FIG. 1C)” value (male Beagle dogs [1]; dog, after recovery period) of the same compound?
A: return of developing sperm

Q: And the “Cause of death or moribundity” value (male Beagle dogs [1]; dogs, 10 or 25 mg/kg/day)?
A: renal toxicity

Q: And the “NOAEL increase over the minimum efficacious dose in rats” value (male Beagle dogs [1]; male, Beagle, dog, in vivo, 28 days)?
A: 22 fold

Q: And the “HED for 60 kg BW” value (male Beagle dogs [1]; of dog repeat-dose NOAEL)?
A: 168 mg

Q: And the “HED for 80 kg BW” value (male Beagle dogs [1]; of dog repeat-dose NOAEL)?
A: 224 mg

Q: And the “Genotoxicity: rat micronucleus” value (rat micronucleus)?
A: not genotoxic; also recorded: no genotoxic potential; also recorded: Clean

Q: What about the “Genotoxicity: chromosomal aberration” value (mammalian cell) of the same compound?
A: not genotoxic; also recorded: no genotoxic potential; also recorded: Clean

Q: What about the “Genotoxicity: Ames” value [2] of the same compound?
A: not genotoxic; also recorded: no genotoxic potential; also recorded: Clean

Q: And the AUC(0-t) ([3]; Day 1, mean, read-out: AUC0-24)?
A: 560 µg·h/mL

Q: What about the Tmax ([3]; Day 1, median) of the same compound?
A: 48 h

Q: And the half-life ([3]; Day 1, median, calculated from only 2 animals)?
A: 16.9 h

Q: And the Cmax ([3]; Day 1, n = 20, mean)?
A: 45.1 µg/mL

Q: And the half-life ([4]; Day 1, mean ± SD)?
A: 7.9 ± 1.7 h

Q: What about the AUC(0-t) ([4]; Day 1, mean) of the same compound?
A: 147 µg·h/mL

Q: What about the Cmax ([4]; Day 1, n = 3, mean) of the same compound?
A: 13 µg/mL

Q: And the Cmax ([4]; Day 14, mean)?
A: 6.53 µg/mL

Q: And the half-life ([4]; Day 14, mean ± SD)?
A: 6.2 ± 0.4 h

Q: And the AUC(0-t) ([4]; Day 14, mean)?
A: 69.7 µg·h/mL

Q: And the Fertility (rats; 3 mg/kg/day dose group)?
A: 13%

Q: And the Fertility (rats; 10 mg/kg/day dose group)?
A: 6%

Q: What about the Fertility (rats; 30 mg/kg/day dose group) of the same compound?
A: 0%

Q: What about the “HED of tolerated single dose” value (male dogs; dogs, 500 mg/kg) of the same compound?
A: 277.8 mg/kg

Q: What about the “Tolerated single dose (highest dose tested)” value (male dogs; male dogs, non-GLP study) of the same compound?
A: 500 mg/kg

Q: What about the half-life [5] of the same compound?
A: > 23.1 h

Q: What about the half-life ([6]; rat, read-out: Half-life (T1/2) in microsomes) of the same compound?
A: > 23.1 h

Q: And the Compound remaining intact ([6]; 90 minutes)?
A: 113%

Q: And the half-life ([7]; dog, read-out: Half-life (T1/2) in microsomes)?
A: > 23.1 h

Q: And the Compound remaining intact ([7]; 90 minutes)?
A: 101%

Q: And the “Metabolites yielded by biotransformation” value ([8]; 10 μM, pooled hepatocytes)?
A: 10 metabolites

Q: And the “Human metabolites produced (of the 8)” value ([8]; dog hepatocytes)?
A: 4

Q: And the “Quantified human metabolites produced (of the 8)” value ([8]; rat hepatocytes)?
A: 6

Q: And the IC50 (CYP2C19; CYP2C19)?
A: 85.1 µM

Q: What about the “Time-dependent inhibition (TDI)” value (CYP2C19; CYP2C19, 0.3 to 100 μM) of the same compound?
A: no TDI potential

Q: What about the IC50 (CYP3A4/5; CYP3A4/5, midazolam as substrate) of the same compound?
A: 58.6 µM

Q: What about the IC50 (CYP3A4/5; CYP3A4/5, testosterone as substrate) of the same compound?
A: 53.6 µM

Q: What about the Cmax ([9]; 15 mg once daily, Day 1) of the same compound?
A: 247.8 ng/mL

Q: What about the AUC0-24 ([9]; 15 mg once daily, Day 28) of the same compound?
A: 6,414 h*ng/mL

Q: And the AUC0-24 ([9]; 90 mg once daily, Day 1)?
A: 14,091/ h*ng/mL

Q: What about the Cmax ([9]; 90 mg once daily, Day 1) of the same compound?
A: 794.3 ng⁻¹ mL⁻¹

Q: What about the AUC0-24 ([9]; 90 mg once daily, Day 28) of the same compound?
A: 22,710/ h*ng/mL

Q: What about the Cmax ([9]; 90 mg once daily, Day 28) of the same compound?
A: 1,165/ ng/mL

Q: And the AUC0-24 ([9]; […] mg once daily, Day 1)?
A: 10,060/ h*ng/mL

Q: And the Cmax ([9]; […] mg once daily, Day 1)?
A: 544.5 ng⁻¹ mL⁻¹

Q: And the AUC0-24 ([9]; […] mg once daily, Day 28)?
A: 9,585/ h*ng/mL

Q: And the Cmax ([9]; […] mg once daily, Day 28)?
A: 551.5 ng⁻¹ mL⁻¹

Q: What about the AUC(0-t) ([9]; male, human, in vivo, oral, 15 mg, 15 mg once daily, Day 1, read-out: AUC0-24) of the same compound?
A: 4.85 µg·h/mL

Q: And the AUC(0-t) ([9]; male, human, in vivo, oral, 15 mg, 15 mg once daily, Day 1, read-out: AUC0-last)?
A: 4.85 µg·h/mL

Q: What about the Cmax ([9]; male, human, in vivo, oral, 15 mg, 15 mg once daily, Day 1, read-out: Cmax) of the same compound?
A: 275 ng/mL

Q: And the AUC(0-t) ([9]; male, human, in vivo, oral, 15 mg, 15 mg once daily, Day 28, read-out: AUC0-24)?
A: 6.42 µg·h/mL

Q: What about the AUC(0-t) ([9]; male, human, in vivo, oral, 15 mg, 15 mg once daily, Day 28, read-out: AUC0-last) of the same compound?
A: 24.7 µg·h/mL

Q: What about the Cmax ([9]; male, human, in vivo, oral, 15 mg, 15 mg once daily, Day 28, read-out: Cmax) of the same compound?
A: 348 ng/mL

Q: What about the AUC(0-t) ([9]; male, human, in vivo, oral, 30 mg, 30 mg once daily, Day 1, read-out: AUC0-24) of the same compound?
A: 10.1 µg·h/mL

Q: What about the AUC(0-t) ([9]; male, human, in vivo, oral, 30 mg, 30 mg once daily, Day 1, read-out: AUC0-last) of the same compound?
A: 10.1 µg·h/mL

Q: And the Cmax ([9]; male, human, in vivo, oral, 30 mg, 30 mg once daily, Day 1, read-out: Cmax)?
A: 544 ng/mL

Q: And the AUC(0-t) ([9]; male, human, in vivo, oral, 30 mg, 30 mg once daily, Day 28, read-out: AUC0-24)?
A: 9.59 µg·h/mL

Q: And the AUC(0-t) ([9]; male, human, in vivo, oral, 30 mg, 30 mg once daily, Day 28, read-out: AUC0-last)?
A: 36.1 µg·h/mL

Q: And the Cmax ([9]; male, human, in vivo, oral, 30 mg, 30 mg once daily, Day 28, read-out: Cmax)?
A: 552 ng/mL

Q: What about the Tmax ([9]; male, human, in vivo, oral, 30 mg, 30 mg once daily, Day 28) of the same compound?
A: 6 h

Q: And the AUC(0-inf) [9, 13]?
A: 36.4 µg·h/mL

Q: What about the half-life [9, 13] of the same compound?
A: 28.9 h

Q: And the AUC(0-t) ([9]; male, human, in vivo, oral, 90 mg, 90 mg once daily, Day 1, read-out: AUC0-24)?
A: 14.1 µg·h/mL

Q: And the AUC(0-t) ([9]; male, human, in vivo, oral, 90 mg, 90 mg once daily, Day 1, read-out: AUC0-last)?
A: 14.1 µg·h/mL

Q: What about the Cmax ([9]; male, human, in vivo, oral, 90 mg, 90 mg once daily, Day 1, read-out: Cmax) of the same compound?
A: 794 ng/mL

Q: And the Tmax ([9]; male, human, in vivo, oral, 90 mg, 90 mg once daily, Day 1)?
A: 6 h

Q: What about the AUC(0-t) ([9]; male, human, in vivo, oral, 90 mg, 90 mg once daily, Day 28, read-out: AUC0-24) of the same compound?
A: 22.7 µg·h/mL

Q: And the Cmax ([9]; male, human, in vivo, oral, 90 mg, 90 mg once daily, Day 28, read-out: Cmax)?
A: 1160 ng/mL

Q: What about the AUC(0-inf) [9, 14] of the same compound?
A: 27.5 µg·h/mL

Q: And the half-life [9, 14]?
A: 35.8 h

Q: And the NOAEL [10]?
A: 25 mg/kg

Q: And the “Main outcomes: dog cardiovascular (effects)” value (male Beagle dogs [11])?
A: no effects; also recorded: Clean

Q: What about the AUC(0-t) ([12]; Day 1, mean) of the same compound?
A: 43.8 µg·h/mL

Q: And the AUC(0-t) ([12]; Day 28, mean)?
A: 80.8 µg·h/mL

Q: And the Cmax ([12]; Day 1, n = 9, mean)?
A: 3.41 µg/mL

Q: And the Cmax ([12]; Day 28, mean)?
A: 4.8 µg/mL

Q: And the half-life ([12]; T1/2, dog, Day 1, median)?
A: 13.9 h

Q: What about the Tmax ([12]; Tmax, Day 28, median) of the same compound?
A: 2 h
